Test systems include A498 renal; BT-549 breast; DU-145 prostate; HT29 colon; NCI-H23 lung; NCI-H522 lung; OVCAR-3 ovarian; OVCAR-4 ovarian; SF-539 CNS; SK-MEL-2 melanoma; SK-OV-3 ovarian; SNB-19 CNS; T-47D breast; U251 CNS; UO-31 renal; HOP-92 NSCLC; IGROV1 ovarian.
Holding throughout (assay): NCI tumour cell line growth inhibition, 48 h

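Interpolation was linear, between the two tested concentrations surrounding the appropriate level; five concentrations were tested over 48 hours in 96-well plates. Definition used: TGI = concentration required for complete inhibition of growth.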

Consider `O=c1[nH][nH]c(=O)n1Cc1ccccc1`, for which the TGI with A498 renal, in the assay on BT-549 breast, in the assay on DU-145 prostate, in the assay with HT29 colon, in the assay with NCI-H23 lung and with NCI-H522 lung was greater than 100 µM throughout. Moreover, the TGI with OVCAR-3 ovarian, in the assay with OVCAR-4 ovarian, in the assay with SF-539 CNS, in the assay with SK-MEL-2 melanoma, in the assay on SK-OV-3 ovarian and in the assay with SNB-19 CNS was greater than 100 µM throughout. Besides, the TGI in the assay on T-47D breast, in the assay with U251 CNS and in the assay with UO-31 renal was greater than 100 µM throughout.
In the case of `CCC1=CC(OCc2ccccc2)C(CCN(Cc2ccccc2)C(=O)OCc2ccccc2)C1` (stereo unspecified), the TGI worked out at 48.4 µM in the assay on A498 renal; 30.2 µM in the assay on DU-145 prostate; 27 µM in the assay on HOP-92 NSCLC; 37.6 µM with HT29 colon; 29.8 µM in the assay with IGROV1 ovarian; 33.4 µM in the assay on NCI-H23 lung. In addition, the TGI amounted to 25.9 µM in the assay with NCI-H522 lung; 28.4 µM in the assay on OVCAR-3 ovarian; 27.4 µM in the assay on OVCAR-4 ovarian; 49.1 µM in the assay with SF-539 CNS; 42.1 µM in the assay on SK-MEL-2 melanoma; 80.6 µM in the assay with SK-OV-3 ovarian. The TGI came to 30.9 µM in the assay on SNB-19 CNS, 22.8 µM in the assay with T-47D breast, 62 µM with U251 CNS and 28.3 µM in the assay with UO-31 renal.
In the case of `C1=NN2C(c3ccccc3)=NOC2C2C(c3ccccc3)=NOC12` (stereo unspecified), the TGI in the assay with BT-549 breast, with DU-145 prostate, with IGROV1 ovarian, in the assay with NCI-H23 lung, in the assay with NCI-H522 lung and with OVCAR-3 ovarian was greater than 100 µM in each case. Also, the TGI with SF-539 CNS, with SK-OV-3 ovarian, with SNB-19 CNS and with UO-31 renal was greater than 100 µM in each case.
Turning to `C/C(=C\[Si](C)(C)c1ccco1)C(C)(O)[C@H](C)O` (stereo partly specified), the TGI in the assay on A498 renal is greater than 100 µM; in the assay on DU-145 prostate, greater than 100 µM; with HOP-92 NSCLC it was greater than 100 µM; in the assay with HT29 colon, greater than 100 µM; in the assay with IGROV1 ovarian, greater than 100 µM; in the assay on NCI-H23 lung, 86.4 µM. Moreover, the TGI was 74.4 µM in the assay on NCI-H522 lung; greater than 100 µM in the assay on OVCAR-3 ovarian; 12.8 µM in the assay on OVCAR-4 ovarian; greater than 100 µM in the assay on SF-539 CNS; greater than 100 µM with SK-MEL-2 melanoma; greater than 100 µM in the assay with SK-OV-3 ovarian. For the same molecule, the TGI in the assay on SNB-19 CNS was greater than 100 µM; in the assay with T-47D breast, 54.2 µM; with U251 CNS it was greater than 100 µM.
In the case of `O=[N+]([O-])C(C(Cl)=C(Cl)Cl)=C(N1CCCCC1)N1CCCCC1`, the TGI in the assay with A498 renal, in the assay on BT-549 breast, with DU-145 prostate, in the assay on HT29 colon, in the assay with IGROV1 ovarian and in the assay with NCI-H23 lung was greater than 100 µM in each case. For the same molecule, the TGI in the assay with OVCAR-3 ovarian, in the assay on OVCAR-4 ovarian, with SF-539 CNS, with SK-OV-3 ovarian, in the assay with SNB-19 CNS and in the assay on T-47D breast was greater than 100 µM in each case. Further, the TGI in the assay on U251 CNS and with UO-31 renal was greater than 100 µM throughout.
As for `CC(C)N(C(C)C)S(=O)(=O)CC12CCC(C/C1=N\O)C2` (stereo unspecified), the TGI in the assay on BT-549 breast, in the assay with DU-145 prostate, in the assay on HT29 colon, in the assay with IGROV1 ovarian, in the assay on NCI-H23 lung and in the assay with NCI-H522 lung was greater than 100 µM in each case. Besides, the TGI in the assay with OVCAR-3 ovarian, in the assay on OVCAR-4 ovarian, in the assay with SF-539 CNS, in the assay on SK-MEL-2 melanoma, in the assay on SK-OV-3 ovarian and with SNB-19 CNS was greater than 100 µM in each case. The TGI in the assay with T-47D breast, with U251 CNS and in the assay with UO-31 renal was greater than 100 µM each time.
Take `COc1ccc(/C(C)=C2\CCCN(Cc3ccccc3)C2)cc1`: the TGI in the assay on A498 renal was greater than 100 µM; in the assay with DU-145 prostate it was greater than 100 µM; with HOP-92 NSCLC it was 60.4 µM; in the assay with HT29 colon, 39.5 µM; with IGROV1 ovarian it was 94.3 µM; in the assay on NCI-H23 lung, 79.6 µM. Besides, the TGI in the assay with NCI-H522 lung was 26.4 µM; in the assay on OVCAR-3 ovarian, 37.4 µM; in the assay on OVCAR-4 ovarian, greater than 100 µM; in the assay with SF-539 CNS, 35.2 µM; in the assay on SK-MEL-2 melanoma it was 43.4 µM; with SK-OV-3 ovarian, 80.3 µM. Also, the TGI with SNB-19 CNS came out at 50.6 µM; in the assay on T-47D breast it was 77 µM; with U251 CNS, 40.3 µM; in the assay with UO-31 renal it was 44.1 µM.
Consider `COC(=O)c1cc(/C=C/C(=O)Cc2ccccc2)cn1S(=O)(=O)c1ccccc1`, for which the TGI with BT-549 breast, in the assay with DU-145 prostate, with HT29 colon, in the assay on IGROV1 ovarian, with NCI-H23 lung and in the assay on NCI-H522 lung was greater than 100 µM each time. The TGI in the assay on OVCAR-3 ovarian, in the assay with OVCAR-4 ovarian, in the assay on SF-539 CNS, in the assay with SK-MEL-2 melanoma, with SK-OV-3 ovarian and in the assay with SNB-19 CNS was greater than 100 µM in each case. Further, the TGI with T-47D breast and with UO-31 renal was greater than 100 µM in each case.
On to `CNC(=O)O/N=C1\N(C)CN(c2ccccc2)C12CCN(CCCC(=O)c1ccc(F)cc1)CC2`, for which the TGI in the assay with A498 renal, in the assay with DU-145 prostate, with HOP-92 NSCLC, with HT29 colon, with IGROV1 ovarian and in the assay on NCI-H23 lung was greater than 100 µM throughout. Further, the TGI in the assay with NCI-H522 lung, with OVCAR-3 ovarian, in the assay on OVCAR-4 ovarian, in the assay on SF-539 CNS, with SK-MEL-2 melanoma and with SK-OV-3 ovarian was greater than 100 µM each time. Also, the TGI in the assay on SNB-19 CNS, in the assay with T-47D breast, in the assay with U251 CNS and with UO-31 renal was greater than 100 µM in each case.

The values above are taken from PubChem BioAssay (NCI).
